Measured values published in article PMC4890880 (ACS infectious diseases, 2016).

Columns and labels:
[1] = system: Plasmodium berghei (Pb-Luc) exoerythrocytic-stage parasites; conditions: for normalised signal at concentration 10 (first series): concentration 10, first series of dose columns; for normalised signal at concentration 10 (second series): concentration 10, second series of dose columns; for IC50: read-out: PbLuc_IC50, Broad compounds, dose response top concentration 10; for IC50 / PbLuc_max_inhibition (%): sheet "2nd round"
HepG2-A16-CD81EGFP cells = conditions: sheet "2nd round"; for IC50: read-out: Tox_IC50, HepG2 cytotoxicity

| SMILES | normalised signal at concentration 0.000508053 (first series) [1] | normalised signal at concentration 0.000508053 (second series) [1] | normalised signal at concentration 0.00152416 (first series) [1] | normalised signal at concentration 0.00152416 (second series) [1] | normalised signal at concentration 0.00457247 (first series) [1] | normalised signal at concentration 0.00457247 (second series) [1] | normalised signal at concentration 0.0137174 (first series) [1] | normalised signal at concentration 0.0137174 (second series) [1] | normalised signal at concentration 0.0411523 (first series) [1] | normalised signal at concentration 0.0411523 (second series) [1] | normalised signal at concentration 0.123457 (first series) [1] | normalised signal at concentration 0.123457 (second series) [1] | normalised signal at concentration 0.37037 (first series) [1] | normalised signal at concentration 0.37037 (second series) [1] | normalised signal at concentration 1.11111 (first series) [1] | normalised signal at concentration 1.11111 (second series) [1] | normalised signal at concentration 3.33333 (first series) [1] | normalised signal at concentration 3.33333 (second series) [1] | normalised signal at concentration 10 (first series) [1] | normalised signal at concentration 10 (second series) [1] | also measured |
| --- | --- | --- | --- | --- | --- | --- | --- | --- | --- | --- | --- | --- | --- | --- | --- | --- | --- | --- | --- | --- | --- |
| O=C(Nc1ccccc1F)N1CCCCN2[C@@H](CO)[C@@H](c3ccc(/C=C/c4ccccc4)cc3)[C@@H]2C1 [BRD-K75724375-001-01-5] | 0.9105 | 0.9278 | 1.073 | 0.9037 | 0.819 | 0.9578 | 0.8286 | 0.9852 | 0.8408 | 0.7698 | 0.9337 | 1.085 | 0.7789 | 1.01 | 1.025 | 0.8416 | 0.8686 | 0.672 | 0.5018 | 0.4819 | IC50 [1]: > 10 µM; PbLuc_max_inhibition (%) [1]: 52%; IC50 (HepG2-A16-CD81EGFP cells): > 10 µM; Tox_max_inhibition (%) (HepG2-A16-CD81EGFP cells): 3.77% |
| COc1ccc(CNC(=O)C[C@H]2CC[C@@H](NC(=O)CN(C)C)[C@H](CO)O2)cc1 [BRD-K05060234-001-01-0] | 0.9876 | 0.95 | 0.9394 | 1.006 | 1.108 | 1.09 | 1.028 | 1.083 | 1.04 | 1.112 | 1.099 | 1.024 | 1.009 | 0.9385 | 1.251 | 1.0925 | 1.234 | 0.8448 | 0.9455 | 0.8679 | IC50 [1]: > 10 µM; PbLuc_max_inhibition (%) [1]: 16%; IC50 (HepG2-A16-CD81EGFP cells): > 10 µM; Tox_max_inhibition (%) (HepG2-A16-CD81EGFP cells): 11% |
| C[C@@H]1CCCCO[C@@H](CN(C)S(=O)(=O)c2ccc(F)cc2)[C@H](C)CN([C@H](C)CO)C(=O)c2cc(N(C)C)ccc2O1 [BRD-K17570530-001-01-5] | 0.9121 | 0.9459 | 0.7511 | 0.8649 | 0.9449 | 0.9685 | 0.964 | 0.9508 | 1.052 | 0.9313 | 1.16 | 0.9927 | 0.8577 | 0.9491 | 0.9131 | 0.9395 | 0.7629 | 0.867 | 0.8313 | 0.7644 | IC50 [1]: > 10 µM; PbLuc_max_inhibition (%) [1]: 25%; IC50 (HepG2-A16-CD81EGFP cells): > 10 µM; Tox_max_inhibition (%) (HepG2-A16-CD81EGFP cells): 4.52% |
